Reference: article PMC11157767 (Molecular Cancer, 2024)
Where “and” joins values, the source holds several entries; their conditions need not be identical. Identical values can stand only once. Like-named read-outs stand apart in the source and are kept apart here.

What was measured:
TRIM24-MET-i PDOX = TRIM24-MET-i PDOX 4-arm trial capmatinib +/- RT (survival, BLI, body weight); assay type: in vivo, mouse
Protocol: All treatments started 18 days after transplantation. Radiotherapy was administered at 0.5 Gy per day, delivering 10 Gy total.
Treatment started on day 13.

TFG-MET allograft tumors = assay: TFG-MET allograft preclinical trial in CD1 mice, Survival cohort (survival, BLI, body weight); assay type: in vivo, mouse; conditions: for BLI signal, individual mice: Murine allografts
Protocol: All treatments started 1 week after transplantation. Radio therapy was administered for 6 days, delivering 12 Gy total. Compound treatment was continued for 84 days. […] N = 8 (vehicle arms) or n = 10 (compound-treated arms), respectively. […] First row is depicted in another intensity scale to visualize tumors in all mice. The depicted scale bar indicates the range from 5x10^5-1x10^7 photons/sec/cm^2/sr.
Survival, body weight and tumor burden data from TFG-MET allograft-bearing mice. a,Schematic illustrating the preliminary in vivo study to determine the efficacy of RT alone. b, Survival curve of mice depicted in a. […] Each line represents one mouse. The ends of lines indicate the onset of neurological symptoms and thereby the endpoints.
Bioluminescence signals of in vivo trials.

[1] = In vitro protein binding assay, naive mouse brain tissue homogenate
TRIM24-MET-r cells = assay: 3-day dose-response assay, TRIM24-MET-r cells; assay type: cell-based; conditions: Homo sapiens, TRIM24-MET-r
[2] = Plasma pharmacokinetics in CD-1 nude mice (NCA); assay type: in vivo, mouse
Protocol: (§1) Fig. 2 TFG-MET-driven mouse model and pharmacokinetic profiles of MET inhibitors. a Schematic illustrating the method and utilized vectors to induce CRISPR/Cas9-mediated Trp53 deletion and TFG-MET overexpression following in utero electroporations. b H&E staining and Immunohistochemical analysis of a tumor generated by in utero electroporation, visualized by the HA-tag of TFG-MET. […] Three mice were analyzed per compound and time point. Error bars indicate the standard deviation. Dashed rectangles indicate time windows of radiation in the following preclinical allograft study
(§2) See Methods – Pharmacokinetics section for a description of abbreviations.

[3] = In vitro protein binding assay, culture media; assay type: in vitro ADME; conditions: read-out: unbound drug fraction, Culture Media, AVG
RAD51 = assay: Western blot of RAD51 in TRIM24-MET or TFG-MET cells, 24 hours; assay type: cell-based, human and mouse
Protocol: Error bars display standard error of mean, statistical significance was determined using t-test analysis. (****;p<0.0001, ***;p<0.001, **;p<0.01, *;p<0.05). […] Each dot represents an individual replicate. Error bars display standard error of the mean. Statistical significance was determined using a One-Way ANOVA followed by Tukey’s multiple comparisons test (*p<0.05, **p<0.01, ***p<0.001, ****p<0.0001). Lysate from lane 10 was excluded due to the different timepoint after RT

[4] = tested on: murine TFG-MET tumor cells; assay: cells; conditions: Mus musculus
Source text: To calculate unbound EC50 and EC90 values, total values were multiplied with unbound drug fractions in culture media (Table 1).

Kap1 pS824 = assay: Western blot of phosphorylated Kap1 (pS824) in TFG-MET allograft tumors; assay type: in vivo, mouse; conditions: capmatinib and RT
Protocol: Error bars display standard error of mean, statistical significance was determined using t-test analysis. (****;p<0.0001, ***;p<0.001, **;p<0.01, *;p<0.05). […] Each dot represents an individual replicate. Error bars display standard error of the mean. Statistical significance was determined using a One-Way ANOVA followed by Tukey’s multiple comparisons test (*p<0.05, **p<0.01, ***p<0.001, ****p<0.0001).

[5] = tested on: cells isolated from murine tumors induced by overexpressing TFG-MET alone; conditions: without Trp53 knockout
[6] = mNSCLC patients; cited from earlier work
TFG-MET cells = assay: γH2AX immunofluorescence after 8Gy irradiation, TFG-MET cells; assay type: cell-based, mouse; conditions: various time points following 8Gy irradiation
Source text: Error bars display standard error of mean, statistical significance determined using t-test analysis, *;p<0.05. Scale bar is 10µm.

[7] = Brain pharmacokinetics in CD-1 nude mice (NCA); assay type: in vivo, mouse
Protocol: as §1, §2

[8] = In vitro protein binding assay, mouse plasma
[9] = CD-1 nude, mouse, Plasma, NCA estimate
[10] = CD-1 nude, mouse, 25 mg/kg, Brain, NCA estimate
[11] = CD-1 nude, mouse, Brain, NCA estimate

CNC(=O)c1ccc(-c2cnc3ncc(Cc4ccc5ncccc5c4)n3n2)cc1F [Capmatinib]
mice with spinal metastasis after therapy was withdrawn (TRIM24-MET-i PDOX; capmatinib + RT): one | tumor burden (TRIM24-MET-i PDOX; capmatinib + RT (0.5 Gy per day, 10 Gy total)): profoundly and stably decreased tumor burden | disease course under monotherapy (TRIM24-MET-i PDOX; capmatinib alone): stable disease in all treated animals | BLI signal, individual mice (TFG-MET allograft tumors; day 7, drug + RT): 2.90E+08 and 3.10E+06 and 2.30E+07 and 4.30E+06 and 9.70E+05 and 1.20E+06 and 8.80E+06 and 3.20E+06 and 7.40E+06 and 6.80E+07 | BLI signal, individual mice (TFG-MET allograft tumors; day 7, drug alone): 2.90E+06 and 5.20E+06 and 4.80E+06 and 3.30E+07 | BLI signal, individual mice (TFG-MET allograft tumors; day 10, drug + RT): 1.80E+08 and 2.30E+06 and 4.90E+07 and 1.20E+07 and 6.70E+06 and 5.70E+05 and 1.10E+07 and 1.60E+06 and 6.20E+06 and 3.60E+07 | BLI signal, individual mice (TFG-MET allograft tumors; day 10, drug alone): 2.30E+06 and 7.80E+06 and 1.50E+07 and 6.40E+07 | BLI signal, individual mice (TFG-MET allograft tumors; day 14, drug + RT): 2.10E+08 and 3.20E+06 and 6.50E+07 and 1.30E+07 and 3.10E+05 and 1.60E+05 and 7.60E+06 and 6.60E+05 and 1.20E+08 | BLI signal, individual mice (TFG-MET allograft tumors; day 14, drug alone): 8.30E+06 and 6.10E+07 and 2.00E+07 and 6.20E+07 | BLI signal, individual mice (TFG-MET allograft tumors; day 21, drug + RT): 1.10E+05 and 1.60E+05 and 1.30E+05 and 1.50E+07 and 5.10E+06 and 3.60E+06 and 6.20E+06 and 1.40E+05 and 9.20E+06 | BLI signal, individual mice (TFG-MET allograft tumors; day 21, drug alone): 8.80E+07 and 2.30E+08 and 7.60E+07 and 2.10E+08 | BLI signal, individual mice (TFG-MET allograft tumors; day 28, drug + RT): 1.10E+05 and 1.60E+05 and 2.00E+05 and 2.20E+08 and 4.30E+07 and 3.30E+07 and 5.10E+07 and 1.50E+05 and 5.80E+06 | BLI signal, individual mice (TFG-MET allograft tumors; day 28, drug alone): 5.10E+08 and 5.20E+08 and 2.60E+08 and 1.90E+08 | BLI signal, individual mice (TFG-MET allograft tumors; day 35, drug + RT): 1.10E+05 and 1.50E+05 and 1.40E+05 and 9.90E+05 and 1.00E+07 | BLI signal, individual mice (TFG-MET allograft tumors; day 42, drug + RT): 1.20E+05 and 1.30E+05 and 1.40E+05 and 2.50E+06 and 4.40E+07 | BLI signal, individual mice (TFG-MET allograft tumors; day 49, drug + RT): 1.30E+05 and 1.20E+05 and 7.40E+06 | BLI signal, individual mice (TFG-MET allograft tumors; day 56, drug + RT): 1.00E+05 and 1.40E+05 and 1.50E+05 and 6.60E+07 and 1.20E+08 | BLI signal, individual mice (TFG-MET allograft tumors; day 63, drug + RT): 1.10E+05 and 2.00E+05 and 1.40E+05 and 1.90E+08 | BLI signal, individual mice (TFG-MET allograft tumors; day 70, drug + RT): 1.10E+05 and 1.20E+05 | BLI signal, individual mice (TFG-MET allograft tumors; day 77, drug + RT): 1.02E+05 and 1.30E+05 and 1.10E+05 | BLI signal, individual mice (TFG-MET allograft tumors; day 84, drug + RT): 1.06E+05 and 9.93E+04 and 1.20E+05 | BLI signal, individual mice (TFG-MET allograft tumors; day 91, drug + RT): 9.34E+04 and 1.44E+05 and 1.14E+05 | animals with reduction of tumor burden by week 3 (BLI) (TFG-MET allograft tumors; capmatinib + RT (12 Gy)): 8/10 | increase of survival rate (TFG-MET allograft tumors; capmatinib + RT (12 Gy), Survival cohort): 3 fold | mice reaching 140 days after transplantation without residual tumor (TFG-MET allograft tumors; capmatinib + RT arm, n = 10): Three | fraction unbound [1]: 0.113 | EC90 (TRIM24-MET-r cells; 72 h, 3-day dose response, read-out: EC90 Total): 199 nM | EC90 (TRIM24-MET-r cells; total value multiplied with unbound fraction in culture media, read-out: EC90 Unbound): 141 nM | plasma concentration at 16 hours post-dose ([2]; CD1 nude mice): below the detection limit | AUC ([2]; CD-1 nude, mouse, plasma, 25 mg/kg, read-out: total plasma AUC): 16400 ng·h/mL | AUC(0-inf) [2, 9]: 16400 ng·h/mL | AUC(0-t) [2, 9]: 14900 ng·h/mL | CL/F [2, 9]: 25.3 mL/min/kg | Cmax [2, 9]: 6200 ng/mL | Tmax [2, 9]: 0.5 h | half-life [2, 9]: 2.27 h | k el [2, 9]: 8.47e-05 s⁻¹ | Vd/F ([2]; CD-1 nude, mouse, Plasma, NCA estimate, read-out: Vz/F): 4.99 L/kg | Clast ([2]; Plasma, NCA estimate): 540 ng/mL | Tlast ([2]; Plasma, NCA estimate): 8 h | fraction unbound [3]: 0.705 | RAD51 protein level (RAD51): downregulation | EC90 ([4]; read-out: EC90 (nM) Total): 29.9 nM | EC90 ([4]; read-out: EC90 (nM) Unbound*): 21.1 nM | phosphorylated Kap1 in tumors vs vehicle + RT (Kap1 pS824): significantly greater increase | inhibition in dose response assay [5]: potently inhibited | discontinuation due to fatigue [6]: 1.5% | discontinuation due to peripheral edema [6]: 1.8% | discontinuation due to pneumonitis [6]: 1.8% | patients permanently discontinued due to an adverse reaction [6]: 16% | percentage of cells with ≥10 γH2AX-foci vs DMSO (TFG-MET cells): significantly higher | Clast ([7]; Brain, NCA estimate): 42.4 ng/mL | Tlast ([7]; Brain, NCA estimate): 8 h | brain concentration at 16 hours post-dose ([7]; CD1 nude mice): below the detection limit | maximal concentration of unbound drug in the brain ([7]; CD1 nude mice, estimated with Fu,b): ~ 103 nM | concentration reached in brain tissues ([7]; CD1 nude mice, total drug): > 1000 nM | AUC(0-inf) [7, 10]: 1260 ng·h/mL | CL/F [7, 10]: 330 mL/min/kg | half-life [7, 10]: 2.34 h | k el [7, 10]: 8.22e-05 s⁻¹ | Kp ([7]; CD-1 nude, mouse, 25 mg/kg, Brain, NCA estimate, read-out: Kp,inf): 0.0768 | Vd/F ([7]; CD-1 nude, mouse, 25 mg/kg, Brain, NCA estimate, read-out: Vz/F): 67 L/kg | AUC(0-t) [7, 11]: 1140 ng·h/mL | Cmax [7, 11]: 486 ng/mL | Tmax [7, 11]: 0.5 h | Kp ([7]; CD-1 nude, mouse, Brain, NCA estimate, read-out: Kp,last): 0.0765 | time after administration with higher effective exposure in the murine brain than crizotinib ([7]; mouse, in vivo): up to 8 hours | fraction unbound [8]: 0.0502
